# Assay results published in patent US8293215B2, “Flavour modulating derivative of a carboxylic acid and a purine, pyrimidine, nucleoside, or nucleotide” (Givaudan Nederland Services B.V., priority 2006, dated 2012).
# Columns and labels:
# [1] = cited from earlier work; for pungency: compared with capsaicin; for taste: as a dry powder and as an alcoholic or aqueous solution
# [2] = tested on: professional sensory panel; test: aqueous solutions in 0.5% salt and 0.05% MSG tasted by a professional sensory panel; assay type: in vivo
# Method: Six aqueous solutions were prepared: A. 0.5% salt and 0.05% MSG The solutions were tasted by a professional sensory panel. Three aqueous solutions were prepared: A. 0.5% salt and 0.05% MSG The solutions were tasted by a professional sensory panel. Solution A was described as: “salty”. […] Three aqueous solutions were prepared: A. 0.5% salt and 0.05% MSG The solutions were tasted by a professional sensory panel. Solution A was described as: “salty” and “umami”.
# sensory panel [3] = test: sweetened 0% fat red fruit yoghurts tasted and evaluated by a sensory panel; assay type: in vivo
# Method: Three yoghurts were prepared according to the recipe in table 2. [table] All products were tasted and evaluated by a sensory panel.
# sensory panel [4] = test: tomato soups (10 g powder in 100 ml hot water) tasted and evaluated by a sensory panel; assay type: in vivo; conditions: for perceived saltiness versus product A (control) / taste description: 50% reduced salt
# Method: [table] 10 Gram of each composition was mixed with 100 ml hot water to obtain tomato soups. The different soups were tasted and evaluated by a sensory panel.
# [5] = Yoghurt C: 0.15 microgram per 100 g yoghurt
# [6] = product D: 0.3 mg per 100 g tomato soup powder
# [7] = Yoghurt B: 0.003 microgram per 100 g yoghurt
# [8] = 0.1 ppt in 0.5% salt and 0.05% MSG (Example 4, solution C)
# [9] = 1 ppb in 0.5% salt and 0.05% MSG (Example 3, solution E)
# [10] = 10 ppt in 0.5% salt and 0.05% MSG (Example 4, solution D)
# [11] = 30 ppb in 0.5% salt and 0.05% MSG (Example 3, solution F)
# [12] = product C: 0.005 mg per 100 g tomato soup powder
compound,measurement,setting,value
p-tolylvanillylthiourea,pungency,[1],property of pungency but to a lesser degree than capsaicin
"Nc1nc2c(ncn2[C@@H]2O[C@H](COP(=O)(O)O)[C@@H](O)[C@H]2O)c(=O)[nH]1 [GMP, guanosine 5′-monophosphate, reference compound]",taste description,"[2]; 1 ppm in 0.5% salt and 0.05% MSG (Example 3, solution B)","“sweet”, “lingering umami”"
o-tolylvanillylthiourea,pungency,[1],property of pungency but to a lesser degree than capsaicin
"CC(O)C(=O)Nc1nc2c(ncn2[C@@H]2O[C@H](COP(=O)(O)O)[C@@H](O)[C@H]2O)c(=O)[nH]1 (stereo partly drawn) [lactoyl-GMP, reference compound]",preference versus product A (yoghurt without modulator),sensory panel [3]; [5],clearly preferred over product A
same,taste description,sensory panel [3]; [5],"sweet, fuller, more natural berry-like, fruity and more balanced flavour"
same,taste description,[2]; 0.6 ppb in 0.5% salt and 0.05% MSG,"“sweet”, “lingering umami”, “more salivating”"
same,taste strength compared with solution C (0.2 ppm process flavour containing 0.3% lactoyl-GMP),"[2]; 0.6 ppb in 0.5% salt and 0.05% MSG (Example 3, solution D)",stronger than C
same,preference versus product B (50% reduced salt),sensory panel [4]; [6],clearly preferred over product B
same,perceived saltiness versus product A (control),sensory panel [4]; [6],comparable to that of product A
same,taste description,sensory panel [4]; [6],"“more taste”, “more impact”, “more kokumi”, “long lasting” and “salivating”"
COc1cc(CNC(N)=S)ccc1O [vanillylthiourea],taste,[1],tasteless
COc1cc(CNC(N)=O)ccc1O [Vanillylurea],taste,[1],tasteless
phenylvanillylthiourea,taste,[1],tasteless
same,pungency,[1],property of pungency but to a lesser degree than capsaicin
"CC(=O)Nc1nc2c(ncn2[C@@H]2O[C@H](COP(=O)(O)O)[C@@H](O)[C@H]2O)c(=O)[nH]1 [acetyl-GMP, N-acetyl-GMP]",preference versus product A (yoghurt without modulator),sensory panel [3]; [7],clearly preferred over product A
same,strength compared with product C (0.15 microgram lactoyl-GMP per 100 g),sensory panel [3]; [7],comparable
same,taste description,sensory panel [3]; [7],"sweet, fuller, more natural berry-like, fruity and more balanced flavour"
same,share of the panel that found this detectable,[2]; [8],40%
same,taste description,[2]; [8],"“sweet”, “umami”"
same,taste description,[2]; [9],"“salivating”, “salty”"
same,taste strength compared with solution D (0.6 ppb lactoyl-GMP),[2]; [9],stronger than D
same,taste description,"[2]; 1 ppt in 0.5% salt and 0.05% MSG (Example 8, solution C)","“sweet”, “umami”"
same,share of the panel that found this detectable,[2]; [10],100%
same,strength of the taste compared with solution B (0.6 ppb lactoyl-GMP),[2]; [10],comparable
same,taste description,[2]; [10],"“sweet”, “umami”"
same,taste description,[2]; [11],"“salivating”, “salty”"
same,taste strength compared with solution E (1 ppb acetyl-GMP),[2]; [11],stronger than E
same,preference versus product B (50% reduced salt),sensory panel [4]; [12],clearly preferred over product B
same,perceived saltiness versus product A (control),sensory panel [4]; [12],comparable to that of product A
same,taste description,sensory panel [4]; [12],"“more taste”, “more impact”, “more kokumi”, “long lasting” and “salivating”"
